Laboratory results reported in patent US9708336B2, “Metallo-beta-lactamase inhibitors” (priority 2014, dated 2017).
Where two headings read alike, the source gives them in different places.

Experiments:
NDM-1 = NDM-1 (Klebsiella pneumoniae, UniProt C7C422); test: biochemical; assay type: biochemical; conditions: read-out: NDM-1 IC50
Description: Enzyme Activity: Determination of IC50
The Class B enzyme activities were measured in the presence of the test inhibitor in a fluorescence assay against a commercially available substrate consisting of a cephalosporin core linking 7-hydroxycoumarin to fluorescein (CCF2-FA). The enzyme (NDM-1, IMP-1 or VIM-1) and the substrate were diluted in 100 mM KH2PO4 buffer (pH 7) containing 0.005% Tween-20 and 10 μM ZnSO4. […] The test inhibitor was dissolved in dimethylsulfoxide and diluted 1:50 in the assay, resulting in a final concentration range of 20 uM to 0.00063 uM. In a 384-well microplate, the test inhibitor was incubated with the metallo-β-lactamase enzyme and the substrate for 2 hours at 25° C. Fluorescence at 460 nm following excitation at 405 nm was measured. The IC50 value was determined from semi-logarithmic plots of enzyme inhibition versus inhibitor concentration, with a curve generated using a 4-parameter fit.

IMP-1 = IMP-1 (Serratia marcescens, UniProt P52699); test: biochemical; assay type: biochemical; conditions: read-out: IMP-1 IC50
VIM-1 = VIM-1 (Pseudomonas aeruginosa (strain ATCC 15692 / DSM 22644 / CIP 104116 / JCM 14847 / LMG 12228 / 1C / PRS 101 / PAO1), UniProt A0A0F7KYQ8); test: Enzyme activity: determination of IC50, fluorescence assay with CCF2-FA substrate (VIM-1); assay type: biochemical
[1] = tested on: Escherichia coli expressing NDM-1 (CLB30016); test: Antibiotic potentiation activity: synergistic concentration (MITC95) with imipenem, OD600 growth; assay type: cell-based; conditions: for Escherichia coli expressing NDM-1 (CLB 30016) MITC95: concentration giving 95% inhibition of bacterial growth
How it was run: (§1)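 Clinical MBL-producing strains (E. coli NDM-1, S. marcescens IMP-1, K. pneumoniae VIM-1) from overnight plates were diluted 1:100 into 1.1×CAMHB. Compound was tested with imipenem at 4 μg/ml (optionally 1 μg/ml) or without it. After 22–24 h at 35 °C, growth was read as OD600.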

[2] = tested on: Klebsiella pneumoniae expressing VIM-1 (IHMA599644); test: as above; assay type: cell-based; conditions: for Klebsiella pneumoniae expressing VIM-1 (IHMA 599644) MITC95: concentration giving 95% inhibition of bacterial growth
How it was run: as §1

[3] = tested on: Serratia marcescens expressing IMP-1 (CL5741); test: as above; assay type: cell-based; conditions: for Serratia marcescens expressing IMP-1 (CL5741) MITC95: concentration giving 95% inhibition of bacterial growth
How it was run: as §1

[4] = NDM-1 enzyme, CCF2-FA substrate
[5] = IMP-1 enzyme, CCF2-FA substrate
[6] = VIM-1 IC50, VIM-1 enzyme, CCF2-FA substrate
[7] = (CLB30016, NDM-1), 95% growth inhibition
[8] = Klebsiella pneumoniae IHMA599644 (VIM-1), 95% growth inhibition
[9] = Serratia marcescens CL5741 (IMP-1), 95% growth inhibition
[10] = VIM-1 enzyme, CCF2-FA substrate, read-out: VIM-1 IC50
[11] = fluorescence assay with CCF2-FA substrate
[12] = fluorescence assay with CCF2-FA substrate, read-out: VIM-1 IC50
[13] = CLB30016 (NDM-1), 95% inhibition of bacterial growth
[14] = IHMA599644 (VIM-1), 95% inhibition of bacterial growth
[15] = CL5741 (IMP-1), 95% inhibition of bacterial growth
[16] = NDM-1 enzyme, CCF2-FA fluorescence assay
[17] = IMP-1 enzyme, CCF2-FA fluorescence assay
[18] = VIM-1 enzyme, CCF2-FA fluorescence assay, read-out: VIM-1 IC50
[19] = Escherichia coli expressing NDM-1 (CLB30016), 95% growth inhibition
[20] = Klebsiella pneumoniae expressing VIM-1 (IHMA599644), 95% growth inhibition
[21] = Serratia marcescens expressing IMP-1 (CL5741), 95% growth inhibition

NDM-1, sequence (C7C422 whole entry, looked up, species assumed): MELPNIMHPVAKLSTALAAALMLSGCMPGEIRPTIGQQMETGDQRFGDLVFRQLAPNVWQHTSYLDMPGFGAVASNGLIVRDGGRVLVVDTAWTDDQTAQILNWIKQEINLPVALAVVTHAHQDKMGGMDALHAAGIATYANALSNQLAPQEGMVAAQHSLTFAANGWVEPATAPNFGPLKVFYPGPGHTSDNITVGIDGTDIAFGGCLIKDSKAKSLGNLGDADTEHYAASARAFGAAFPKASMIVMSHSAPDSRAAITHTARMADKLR
IMP-1, sequence (P52699 whole entry, looked up): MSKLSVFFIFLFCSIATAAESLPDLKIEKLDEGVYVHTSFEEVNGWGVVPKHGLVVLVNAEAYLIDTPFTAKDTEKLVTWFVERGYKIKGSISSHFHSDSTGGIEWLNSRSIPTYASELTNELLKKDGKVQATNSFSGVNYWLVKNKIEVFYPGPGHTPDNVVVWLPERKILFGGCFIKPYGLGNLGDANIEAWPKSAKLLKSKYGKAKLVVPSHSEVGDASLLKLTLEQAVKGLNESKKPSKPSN

SMILES	IC50 (NDM-1; [4])	IC50 (IMP-1; [5])	Escherichia coli MITC95 [1, 7]	Klebsiella pneumoniae MITC95 [2, 8]	Serratia marcescens MITC95 [3, 9]	IC50 (VIM-1; [10])	IC50 (NDM-1; [11])	IC50 (IMP-1; [11])	IC50 (VIM-1; [12])	also measured
NS(=O)(=O)c1c(C[C@H]2CC[C@@H](N)CC2)ccc(-c2ccc(C3CNC3)cc2)c1-c1nnn[nH]1 [Example 596, 4-(((1s,4s)-4-aminocyclohexyl)methyl)-4′-(azetidin-3-yl)-2-(1H-tetrazol-5-yl)-[1,1′-biphenyl]-3-sulfonamide]	4.38 nM	10.6 nM	0.7813 µM	1.563 µM	1.563 µM					IC50 (VIM-1; [6]): 7.46 nM
NS(=O)(=O)c1c(C(F)(F)F)ccc(-c2ccc(C3CCCN3)cc2)c1-c1nnn[nH]1 (stereo not drawn) [Example 716, 4′-pyrrolidin-2-yl-2-(1H-tetrazol-5-yl)-4-(trifluoromethyl)biphenyl-3-sulfonamide]	8.07 nM	5.43 nM	6.25 µM	25 µM	3.125 µM					IC50 (VIM-1; [6]): 2.79 nM
Cc1n[nH]c2c1CN(c1ccc(C(F)(F)F)c(S(N)(=O)=O)c1-c1nnn[nH]1)CC2 [Example 655]	0.985 nM	7.8 nM	2.344 µM	9.375 µM	0.5859 µM	0.225 nM				
NS(=O)(=O)c1c(C(F)(F)F)ccc(N2CCN(CCCO)CC2)c1-c1nnn[nH]1 [Example 763, 3-[4-(3-hydroxypropyl)piperazin-1-yl]-2-(1H-tetrazol-5-yl)-6-(trifluoromethyl) benzenesulfonamide]							37.7 nM	46.4 nM	73.6 nM	Escherichia coli MITC95 [1, 13]: 1.563 µM; Klebsiella pneumoniae MITC95 [2, 14]: 50 µM; Serratia marcescens MITC95 [3, 15]: 3.125 µM
NS(=O)(=O)c1c(C(F)(F)F)ccc(-c2ccc(C3CN(CC4CNC4)C3)cc2)c1-c1nnn[nH]1 [Example 800, 4′-[1-(azetidin-3-ylmethyl)azetidin-3-yl]-2-(1H-tetrazol-5-yl)-4-(trifluoromethyl)biphenyl-3-sulfonamide]							2.68 nM	5.14 nM	14.3 nM	Escherichia coli MITC95 [1, 13]: 0.7813 µM; Klebsiella pneumoniae MITC95 [2, 14]: 12.5 µM; Serratia marcescens MITC95 [3, 15]: 6.25 µM
NS(=O)(=O)c1nccc(N2CCC(N3CC[C@H](O)C3)CC2)c1-c1nnn[nH]1 [Example 226, 4-{4-[(3S)-3-hydroxypyrrolidin-1-yl]piperidin-1-yl}-3-(1H-tetrazol-5-yl)pyridine-2-sulfonamide]							481 nM	3870 nM	710 nM	Escherichia coli expressing NDM-1 (CLB 30016) MITC95 [1]: 6.25 µM; Klebsiella pneumoniae expressing VIM-1 (IHMA 599644) MITC95 [2]: 12.5 µM; Serratia marcescens expressing IMP-1 (CL5741) MITC95 [3]: 50 µM
NC[C@H]1CC[C@@H](Cc2ccc(-c3ccc(C4CCNC4)cc3)c(-c3nnn[nH]3)c2S(N)(=O)=O)CC1 (stereo partly drawn) [Example 587, 4-(((1s,4s)-4-(aminomethyl)cyclohexyl)methyl)-4′-(pyrrolidin-3-yl)-2-(1H-tetrazol-5-yl)-[1,1′-biphenyl]-3-sulfonamide]	0.798 nM	2.83 nM	0.7813 µM	6.25 µM	1.563 µM	11.5 nM				
NS(=O)(=O)c1cccc(-c2ccc(CNCCn3nccn3)cc2)c1-c1nnn[nH]1 [Example 383, 2-(1H-tetrazol-5-yl)-4′-({[2-(2H-1,2,3-triazol-2-yl)ethyl]amino}methyl)biphenyl-3-sulfonamide]										IC50 (NDM-1; [16]): 4.66 nM; IC50 (IMP-1; [17]): 51.6 nM; IC50 (VIM-1; [18]): 269 nM; Escherichia coli MITC95 [1, 19]: 1.563 µM; Klebsiella pneumoniae MITC95 [2, 20]: 200 µM; Serratia marcescens MITC95 [3, 21]: 1.563 µM
NS(=O)(=O)c1cccc(CCC2CCCCC2)c1-c1nnn[nH]1 [Example 164, 3-(2-cyclohexylethyl)-2-(1H-tetrazol-5-yl)benzenesulfonamide]							2.93 nM	5.5 nM	50.6 nM	Escherichia coli expressing NDM-1 (CLB 30016) MITC95 [1]: 1.563 µM; Klebsiella pneumoniae expressing VIM-1 (IHMA 599644) MITC95 [2]: 200 µM; Serratia marcescens expressing IMP-1 (CL5741) MITC95 [3]: 0.3906 µM
NC(=O)c1ccc(-c2ccc(C(F)(F)F)c(S(N)(=O)=O)c2-c2nn[nH]n2)cn1 [Example 527, 5-(3-Sulfamoyl-2-(2H-tetrazol-5-yl)-4-(trifluoromethyl)phenyl)picolinamide]	7.03 nM	10.6 nM	6.25 µM	12.5 µM	12.5 µM	2.89 nM				
Nc1nc2ccc(-c3cccc(S(N)(=O)=O)c3-c3nn[nH]n3)cc2[nH]1 [Example 429]										IC50 (NDM-1; [16]): 2.58 nM; IC50 (IMP-1; [17]): 499 nM; IC50 (VIM-1; [18]): 30 nM; Escherichia coli MITC95 [1, 19]: 0.0625 µM; Klebsiella pneumoniae MITC95 [2, 20]: 2.344 µM; Serratia marcescens MITC95 [3, 21]: 6.25 µM
NS(=O)(=O)c1c(C(F)(F)F)ccc(N2CC[C@H]3NCCO[C@@H]3C2)c1-c1nnn[nH]1 [Example 773, 3-[(4aR,8aR)-octahydro-6H-pyrido[3,4-b][1,4]oxazin-6-yl]-2-(1H-tetrazol-5-yl)-6-(trifluoromethyl) benzenesulfonamide]							31.8 nM	17.2 nM	1.11 nM	Escherichia coli MITC95 [1, 13]: 6.25 µM; Klebsiella pneumoniae MITC95 [2, 14]: 3.125 µM; Serratia marcescens MITC95 [3, 15]: 6.25 µM
NS(=O)(=O)c1cccc(-c2ccc(C3CCN(CC4CCNC4)CC3)cc2)c1-c1nnn[nH]1 (stereo not drawn) [Example 618, 3-[4-[1-(pyrrolidin-3-ylmethyl)-4-piperidyl]phenyl]-2-(1H-tetrazol-5-yl)benzenesulfonamide]	11.7 nM	16.1 nM	0.3906 µM	75 µM	0.3906 µM	345 nM				
NS(=O)(=O)c1c(C(F)(F)F)ccc(-c2ccc(C3CCN(CC4CNC4)CC3)cc2)c1-c1nnn[nH]1 [Example 671, 4′-[1-(azetidin-3-ylmethyl)piperidin-4-yl]-2-(1H-tetrazol-5-yl)-4-(trifluoromethyl)biphenyl-3-sulfonamide]	4.13 nM	2 nM	1.172 µM	37.5 µM	1.563 µM	5.65 nM				
NS(=O)(=O)Cc1cccc(-c2ccc(C(F)(F)F)c(S(N)(=O)=O)c2-c2nnn[nH]2)c1 [Example 737, 3′-(sulfamoylmethyl)-2-(1H-tetrazol-5-yl)-4-(trifluoromethyl)biphenyl-3-sulfonamide]	4.95 nM	3.02 nM	6.25 µM	25 µM	3.125 µM					IC50 (VIM-1; [6]): 4.29 nM
Cc1ccc(-c2ccc(Cl)c(S(N)(=O)=O)c2-c2nn[nH]n2)cc1 [Example 263, 4-chloro-4′-methyl-2-(2H-tetrazol-5-yl)-[1,1′-biphenyl]-3-sulfonamide]										IC50 (NDM-1; [16]): 3.27 nM; IC50 (IMP-1; [17]): 21 nM; IC50 (VIM-1; [18]): 11.5 nM; Escherichia coli MITC95 [1, 19]: 0.7813 µM; Klebsiella pneumoniae MITC95 [2, 20]: 18.75 µM; Serratia marcescens MITC95 [3, 21]: 0.7813 µM
